The term Km denotes the concentration of substrate that gives half-maximal velocity.

T1: DmUCP4A (Drosophila melanogaster, UniProt Q9VX14)
T1 construct: gene Ucp4A
T1 sequence (Q9VX14 1-340): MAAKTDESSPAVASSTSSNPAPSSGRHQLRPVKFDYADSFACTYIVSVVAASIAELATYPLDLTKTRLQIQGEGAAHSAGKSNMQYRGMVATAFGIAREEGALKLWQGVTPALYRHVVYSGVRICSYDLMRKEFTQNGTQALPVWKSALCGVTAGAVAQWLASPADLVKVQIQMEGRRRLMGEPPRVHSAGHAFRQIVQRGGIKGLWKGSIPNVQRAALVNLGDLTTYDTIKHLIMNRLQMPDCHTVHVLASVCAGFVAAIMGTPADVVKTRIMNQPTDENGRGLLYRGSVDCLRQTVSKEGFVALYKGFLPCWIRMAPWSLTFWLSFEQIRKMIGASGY

B1: DmUCP4A (Drosophila melanogaster) (protein)
chain: T1 sequence (Q9VX14 1-340)

Substrate in one data set: N[C@@H](CC(=O)O)C(=O)O
In words: purified protein. The note with it: aspartate/aspartate exchange, 10 mM internal aspartate, pH 6.5, 25 °C, labelled compound.
On to B1, for which the Km amounted to 229.2 ± 12.64 µM.

The target of a further data set is T1, DmUCP4A. As to the kind of experiment: inhibition of […]aspartate/aspartate exchange in proteoliposomes. The format is biochemical. The note with it: 0.3 mM external [14C]aspartate, 10 mM internal aspartate, pH 6.5, 25 °C, 1 min.
With `CCCCC(C(=O)O)C(=O)O` [butylmalonate], the “% inhibition at 10 mM” value was “butylmalonate, and phenylsuccinate”. Same read-out and setting: as for `O=C(O)/C=C\C(=O)O` [maleate], the entry is “to a much lower extent by oxalate, maleate, 2-oxoglutarate, and cysteine sulfinate”. On the same count and under the same terms, the same measure for `O=C(O)CC(C(=O)O)c1ccccc1` (stereo not drawn) [phenylsuccinate]: “butylmalonate, and phenylsuccinate”; for `c1ccc(-c2ccnc3c2ccc2c(-c4ccccc4)ccnc23)cc1` [bathophenanthroline]: “The activity of DmUCP4A was strongly inhibited by BAT, PLP, and tannic acid”. `Cc1ncc(COP(=O)(O)O)c(C=O)c1O` [pyridoxal-5′-phosphate]: the “% inhibition at 10 mM” value was “The activity of DmUCP4A was strongly inhibited by BAT, PLP, and tannic acid”.

Consider `O=C(O)CCC(=O)C(=O)O` [2-oxoglutarate], for which the “% inhibition at 10 mM” value was “to a much lower extent by oxalate, maleate, 2-oxoglutarate, and cysteine sulfinate”. In the case of `N[C@@H](CS(=O)O)C(=O)O` [cysteine sulfinate], the “% inhibition at 10 mM” value is “to a much lower extent by oxalate, maleate, 2-oxoglutarate, and cysteine sulfinate”.

Staying with this data set, now noted: 0.3 mM external [14C]aspartate, 10 mM internal aspartate, pH 6.5, 25 °C, 1 min; added externally with labelled aspartate as potential competitor.
Regarding `O=C(O)C(=O)O` [oxalate], the “% inhibition at 10 mM” value is “to a much lower extent by oxalate, maleate, 2-oxoglutarate, and cysteine sulfinate”.

The values are drawn from PMC8834685 (International Journal of Molecular Sciences, 2022).
